In patent US20220218832A1, “POLYMER DRUG” (BIODYNAMIC RESEARCH FOUNDATION, priority 2019, published 2022):

Key:
[1] = system: mouse colon cancer cells (C26); test: In vitro cytotoxicity, MTT, mouse colon cancer cells C26 (Test Example 3); assay type: cell-based; settings: ordinary medium containing 0.1% glucose
Experimental: These C26 cells subcultured intraperitoneally in mice were washed with a MEM medium (centrifugation, 1,500 rpm) and then adjusted the number of cells to 10^5/ml. […] Firstly, the above cells were cultured at a normal oxygen partial pressure for 24 to 30 hours, and then the culture medium [Petri dish, 96 wells] was transferred to a microaerobic conditions, which was made by adding a commercially available oxygen absorber to an anaerobic culture chamber, i.e., a hypoxic agent (oxygen absorber), AnaeroPack—Micro aero generator manufactured by Mitsubishi Gas Chemical Company, Inc., Tokyo, was added into an anaerobic culture chamber to be a microaerobic (hypoxic) oxygen partial pressure (6 to 9%). The sealed chamber used in this test was a medium square jar (3.5 L) manufactured by Sugiyama-Gen Co., Ltd., Tokyo. In this state, the reagents to be examined were added to each medium at a predetermined concentration, and further cultured for 36 hours. After that, the number of living cells was measured by the above MTT method.

[2] = Particle size by dynamic light scattering; assay type: physicochemical; settings: 0.1 M tris-HCl buffer (pH 8.2), 15 mg/ml, 25° C.
Experimental: Then, each solution was measured at 25° C. by a light scattering apparatus, Model ELSZ⋅2000ZS manufactured by Otsuka Electronics (Photal Inc., Osaka).

[3] = Surface charge (Zeta potential); assay type: physicochemical; settings: deionized water, 20 mg/ml
Colon cancer C26 cells = test: In vitro cytotoxicity under normoxic and hypoxic partial pressures for 48 hours, C26 cells (Test Example 4); assay type: cell-based, mouse; settings: especially under low oxygen partial pressures
Experimental: (§1) Colon cancer C26 and HeLa cells (1×10^4 cells/well) were seeded in Falcon 96-well culture plates and cultured overnight at 37° C. in Eagle MEM containing 10% FBS under normoxic partial pressure (5% CO2, 95% air) and hypoxic partial pressure (using a hypoxic chamber, pO2 6-8%). […] Finally, cell viability was analyzed by MTT assay.
(§2) C26 and HeLa cells were also cultured as described above (FIGS. 7A and 7B) and treated with glucosamine (G) and SMA-glucosamine (SG). Finally, cell viability was measured by MTT assay.

[4] = Solubility of lyophilized product in distilled water; assay type: physicochemical; settings: attempted 10 mg/ml solution
[5] = pH of lyophilized product dissolved in distilled water; assay type: physicochemical
HeLa cells [6] = test: In vitro cytotoxicity under normoxic and hypoxic partial pressures for 48 hours, HeLa cells (Test Example 4); assay type: cell-based; settings: especially under low oxygen partial pressures
Experimental: as §1, §2

HeLa cells [7] = settings: aerobic conditions, 24 hours drug treatment
Experimental: The culture of cells was performed in an Eagle MEM medium supplied with 10% fetal calf serum at 37° C. in 95% air/5% CO2. […] After that, the medium was replaced with a fresh medium and the culture was performed for further 24 hours. Then, viable cells was measured by the MTT method.

[8] = system: Escherichia coli (E. coli)
Experimental: (§3) Firstly, in a Falcon plastic plate with 96 wells, 0.1 ml of Mueller-Hinton medium was added to each well, followed by 10 μl of suspension of each bacterium (10^4/well).

Staphylococcus aureus = system: Staphylococcus aureus
Experimental: as §3

[9] = 24 hours, 37° C., boric acid equivalent

Molecule	Cytostatic action, rank order [1]	Average particle size (dynamic light scattering method) in diameter [2] [nm]	Surface charge (Zeta potential) [3] [mV]	Cytotoxicity (cell viability, MTT) (Colon cancer C26 cells)	Solubility in distilled water [4]	Intrinsic pH in solution of lyophilized product in distilled water [5]	Cytotoxicity (cell viability, MTT) (HeLa cells [6])	Growth of cancer cells (cell viability, MTT) (HeLa cells [7])	Antibacterial activity compared with boric acid [8]	Concentration of boric acid at which antibacterial activity was shown [8, 9]	Antibacterial activity under more anaerobic conditions ([8]; more anaerobic conditions)	Antibacterial activity compared with boric acid (Staphylococcus aureus)	Concentration of boric acid at which antibacterial activity was shown (Staphylococcus aureus; [9])	Antibacterial activity under more anaerobic conditions (Staphylococcus aureus; more anaerobic conditions)
N[C@H]1C(O)O[C@H](CO)[C@@H](O)[C@@H]1O (stereo partly shown) [glucosamine, reference compound]	strengthened in the order of (A) free glucosamine, (B) SG and (C) SGB	–	–	–	–	–	–	–	–	–	–	–	–	–
SMA-glucosamine conjugate [SG]	strengthened in the order of (A) free glucosamine, (B) SG and (C) SGB	90 ± 3	−27	very potent cytotoxicity	poorly soluble	8.5	very potent cytotoxicity	–	–	–	–	–	–	–
SMA-glucosamine-boric acid complex [SGB]	strengthened in the order of (A) free glucosamine, (B) SG and (C) SGB	–	–	–	–	–	–	significantly suppressed	stronger antibacterial activity than boric acid	lower than 10 mg/ml	further increased	stronger antibacterial activity than boric acid	lower than 10 mg/ml	further increased
